Experiments:
[1] = test system: PBL from HLA-A2 positive cancer patients (breast cancer, melanoma, renal cell carcinoma); assay: IFN-γ ELISPOT after one in vitro peptide stimulation, cancer patients; format: cell-based, human; conditions: HLA-A2 positive late stage cancer patients; PBL stimulated once with peptide in vitro
Protocol: (§1) To extend the sensitivity of the enzyme-linked immunospot (ELISPOT) assay, PBL were stimulated once in vitro with peptide prior to analysis^34. At day 0, PBL were thawed and plated in 2 ml/well at a concentration of 2×10^6 cells in 24-well plates (Nunc) in X-vivo medium (BioWhittaker) with 5% heat-inactivated human serum in the presence of 10 μM peptide (GenScript). One day later 40 IU/ml recombinant interleukin-2 (IL-2) (PeproTech) was added to the cultures. The cultured cells were tested in the IFN-γ ELISPOT assay on day 8.
(§2) The ELISPOT assay was used to quantify peptide epitope-specific INF-γ releasing effector cells as described previously^17. In some experiments PBMC were stimulated once in vitro with peptide prior to analysis as described^(34) to extend the sensitivity of the assay. Briefly, nitrocellulose bottomed 96-well plates (MultiScreen MAIP N45; Millipore) were coated with anti-IFN-γ Ab (1-D1K; Mabtech). The wells were washed, blocked by X-vivo medium and the effector cells were added in duplicates at different cell concentrations, with or without 10 μM peptide. The plates were incubated overnight. The following day, medium was discarded and the wells were washed prior to addition of biotinylated secondary Ab (7-B6-1-Biotin; Mabtech). The plates were incubated at room temperature (RD for 2 h, washed, and Avidin-enzyme conjugate (AP-Avidin; Calbiochem/Invitrogen Life Technologies) was added to each well. Plates were incubated at RT for 1 h and the enzyme substrate NBT/BCIP (Invitrogen Life Technologies) was added to each well and incubated at RT for 5-10 min. Upon the emergence of dark purple spots, the reaction was terminated by washing with tap water. The spots were counted using the ImmunoSpot Series 2.0 Analyzer (CTL Analyzers) and the peptide-specific CTL frequency could be calculated from the numbers of spot-forming cells.
(§3) Eleven IDO-derived peptides were selected using algorithms based on the main HLA-A2 specific anchor residues and subsequently synthesized^16. […]

CD8+ T cells in PBL = assay: HLA-A2/IDO5 tetramer flow cytometry of PBL; format: cell-based, human; conditions: for average frequency of IDO reactive cells of total CD8+ T cells: after in vitro stimulation
From the text: (§4) For tetramer stainings, PBL from cancer patients and healthy donors as well as TIL from cancer patients were stimulated once in vitro with peptide, or analysed directly ex vivo. The CD8 cells were isolated from PBL using the Dynal CD8 negative isolation kit (Dynal Biotech) at day 7. The resulting T cell cultures were stained with PE coupled tetramer, followed by antibody staining with the flourochrome-coupled mAbs: CD8-allophycocyanin/APC-Cy7, CD3-FITC, […], CD45RO-FITC, CD45RA-PE-Cy5 and CD28-allophycocyanin (BD Immunocytometry Systems). Tetramer stainings were performed in PBS+2% FCS, for 15 min, RT, in the dark, whereas antibody stainings were performed in PBS+2% FCS, 4° C., in the dark. The MHC tetramer complexes used were: HLA-A2/IDO5 (ALLEIASCL (SEQ ID NO: 20)) and HLA-A2/HIV-1 pol476-484 ([…] (SEQ ID NO: 18)). The samples were analyzed on BD FACS aria, using DIVA software (BD Biosciences).

[2] = test system: PBL from healthy individuals; assay: IFN-γ ELISPOT after one in vitro peptide stimulation, healthy individuals; format: cell-based, human
Protocol: as §1, §2, §3

[3] = test system: TIL cultures from HLA-A2+ melanoma and head and neck cancer patients; assay: HLA-A2/IDO5 tetramer staining of IL-2 treated TIL cultures; format: cell-based, human; conditions: tetramer stainings
From the text: as §4

HLA-A2 [4] = target: T1, HLA-A2 (Homo sapiens, UniProt P04439, D140Y/D185E/D98H/E176V/E277Q/G131W/G231S/I119V/I121R/I166T/I218V/L300P/L318F/N151K/N90K/P208A/P217A/Q86G/Q94H/R138H/R169H/T345S); assay: Assembly assay for peptide binding to MHC class I molecules; conditions: recovery of HLA-A2 at 100, 10, 1 and 0.1 μM peptide
T1 construct: empty HLA-molecules released upon cell lysis, from the TAP-deficient cell line T2; endogenous in cells; host or cells: T2 (TAP-deficient human cell line), cell lysate
Protocol: The binding affinity of the synthetic peptides (Genscript) to HLA-A2 molecules, metabolically labelled with [35^S]-methionine, was measured in the assembly assay, as described previously^33. The assay is based on peptide-mediated stabilization of empty HLA-molecules released upon cell lysis, from the TAP-deficient cell line T2. Stably folded HLA-molecules were immune-precipitated by using the HLA class-I specific, conformation dependent monoclonal (mAb) W6/32 and separated by isoelectric focusing (IEF) gel electrophoresis. Major histocompatibility complex (MHC) heavy-chain bands were quantified using the ImageGauge Phosphoimager program (FUJI Photo Film, Carrolton, TX). The intensity of the band is directly related to the amount of peptide-bound class I MHC complex recovering during the assay. The recovery of HLA-A2 was measured in presence of 100, 10, 1, and 0.1 μM of the relevant peptide. The C50 value was calculated for each peptide as the peptide concentration sufficient for half maximal stabilization.

HLA-A2 [5] = assay: HLA-A2 expression by flow cytometry; format: cell-based, human; conditions: CAMA-1+IFN-γ treatment (untreated 43.7)
Protocol: Cancer cells were examined for HLA-A2 expression using flow cytometry. Cells were stained with a fluorochrome-coupled HLA-A2 mAb (BD Bioscience). For comparison, cells were stained with an isotype matched control. The samples were analyzed on BD FACS aria, using DIVA software (BD Biosciences). Assuming normality, HLA-A2 expression was given by a one-tailed two sampled T-test comparing MFIHLA-A2 and MFIIsotype control, where MFI is the Mean Fluorescence 9 Intensity. For p-values<0.05 (significance level) cells were defined HLA-A2+. The fold of expression was defined as MFIHLA-A2/MFIIsotype control.

IDO = assay: Intracellular IDO staining by flow cytometry; format: cell-based, human
From the text: Cancer cell lines and DC were examined for expression of IDO using flow cytometry. After fixation and permeabilization (Cytofix/Cytoperm, BD), cells were stained with mouse anti-IDO antibody (Millipore Corporation) followed by FITC-labeled anti-mouse secondary antibody (DAKO). For all experiments, a negative control only stained with the FITC-coupled secondary antibody was included, to determine the background fluorescence from falsely attached secondary antibodyE and auto-fluorescence. The IDO expression was determined using the staining index defined as MFIpositive−MFIbackground/2×SDbackground where MFI is mean fluorescence intensity. Cells were defined IDO positive if the staining index>1^21.

## ALLEIASCL (listed as Homo sapiens) [IDO5]
[1]
  ELISPOT responses in PBL of cancer patients: ELISPOT responses were detected
CD8+ T cells in PBL; 7 HLA-A2 positive healthy donors
  average frequency of IDO reactive cells of total CD8+ T cells: 0.001%
CD8+ T cells in PBL; 11 HLA-A2 positive cancer patients
  average frequency of IDO reactive cells of total CD8+ T cells: 0.03%
CD8+ T cells in PBL; tetramer staining, healthy donors
  detection of IDO-reactive T cells in healthy donors: No IDO-reactive T cells could be detected
[2]
  spontaneous ELISPOT responses in healthy controls: No spontaneous responses could be detected
[3]
  analyzed patients with detectable IDO5-specific T cells among TIL: 4 of the 5
HLA-A2 [4]
  binding affinity to HLA-A2 compared with the high affinity positive control epitope HIV-1 pol476-484: bound HLA-A2 even better than the high-affinity control epitope

## IFN-γ: cytokine used to treat cancer cells, 100 U/ml for 2 days
HLA-A2 [5]
  HLA-A2 expression, fold over isotype control: 141.2
IDO; CAMA-1+IFN-γ (untreated CAMA-1 1.3), IDO positive if index>1
  IDO staining index: 1.8
IDO; CAMA-1+IFN-γ treatment (untreated 2.3)
  MFIIDO/MFIIsotype control: 3.5
IDO; both cell lines
  expression of IDO in CAMA-1 and MDA-MB-231 after treatment: increased the expression of IDO

## VLSKGDGL (VLSKGDAGL; listed as Homo sapiens) [IDO6]
[1]
  ELISPOT responses in PBL of cancer patients: ELISPOT responses were detected
[2]
  spontaneous ELISPOT responses in healthy controls: No spontaneous responses could be detected

## FLVSLLVEI (listed as Homo sapiens) [IDO2]
[1]
  ELISPOT responses in PBL of cancer patients: ELISPOT responses were detected
[2]
  spontaneous ELISPOT responses in healthy controls: No spontaneous responses could be detected
